The values that follow come from ChEMBL document CHEMBL5380858 (J Med Chem, 2023).

Molecules are shown by their SMILES. Active and inactive are the calls of the source. The rule behind the calls is not given here.

The subject of assay [1] is SARS-CoV-2. Particulars: dose 30 mg/kg; route po; time 4 day.
Assay [2] deals with SARS-CoV-2. Particulars: dose 60 mg/kg; route po; time 4 day.
Assay [3] concerns SARS-CoV-2. Particulars: dose 60 mg/kg; route po; time 4 day. This is another data set of the same source.
Assay [4] has as its system SARS-CoV-2. Particulars: dose 30 mg/kg; route po; time 4 day. The source holds these as a separate data set.
Assay [5] relates to SARS-CoV-2. The assay is classed as functional, organism-based. The settings on record: Severe acute respiratory syndrome coronavirus 2; MA10; dose 60.0 mg/kg, route po, time 2-5 day.
Assay [6] deals with SARS-CoV-2. The assay is classed as functional, organism-based. Particulars: Severe acute respiratory syndrome coronavirus 2; MA10; dose 30.0 mg/kg, route po, time 2-5 day.
Assay [7] has as its system SARS-CoV-2. The assay is classed as functional, organism-based. Particulars: Severe acute respiratory syndrome coronavirus 2; MA10; dose 30.0 mg/kg, route po, time 2-5 day. This is another data set of the same source.
Assay [8] concerns SARS-CoV-2. The assay is classed as functional, organism-based. The settings on record: Severe acute respiratory syndrome coronavirus 2; MA10; dose 60.0 mg/kg, route po, time 2-5 day. This is another data set of the same source.
Assay [9] has as its system SARS-CoV-2. The assay is classed as functional, organism-based. Particulars: Severe acute respiratory syndrome coronavirus 2; MA10; dose 30.0 mg/kg, route po, time 2-5 day. The source holds these as a separate data set.
Assay [10] concerns SARS-CoV-2. The assay is classed as functional, organism-based. The settings on record: Severe acute respiratory syndrome coronavirus 2; MA10; dose 60.0 mg/kg, route po, time 2-5 day. The source holds these as a separate data set.
Assay [11] has as its system SARS-CoV-2. The assay is classed as functional, organism-based. Particulars: Severe acute respiratory syndrome coronavirus 2; MA10; dose 60.0 mg/kg, route po, time 2-5 day. This is another data set of the same source.
Assay [12] has as its system SARS-CoV-2. The assay is classed as functional, organism-based. Particulars: Severe acute respiratory syndrome coronavirus 2; MA10; dose 60.0 mg/kg, route po, time 3-5 day.
Assay [13] relates to SARS-CoV-2. The assay is classed as functional, organism-based. The settings on record: Severe acute respiratory syndrome coronavirus 2; MA10; dose 60.0 mg/kg, route po, time 5.0 day.
Assay [14] deals with SARS-CoV-2. The assay is classed as functional, organism-based. Particulars: Severe acute respiratory syndrome coronavirus 2; MA10; Pneumocyte; dose 60.0 mg/kg, route po, time 2-5 day.
Assay [15] concerns SARS-CoV-2. The assay is classed as functional, organism-based. The settings on record: Severe acute respiratory syndrome coronavirus 2; MA10; dose 60.0 mg/kg, route po, time 2-5 day. The source holds these as a separate data set.
In assay [16] the test system is SARS-CoV-2. Particulars: dose 30 mg/kg; route po; time 5 day.
In assay [17] the test system is SARS-CoV-2. The assay is classed as functional, organism-based. Particulars: Severe acute respiratory syndrome coronavirus 2; MA10; dose 60.0 mg/kg, route po, time 2-5 day. This is another data set of the same source.
For assay [18], the system named is SARS-CoV-2. The assay is classed as functional, organism-based. Particulars: Severe acute respiratory syndrome coronavirus 2; MA10; dose 30.0 mg/kg, route po, time 2-5 day. The source holds these as a separate data set.
The subject of assay [19] is SARS-CoV-2. The assay is classed as functional, organism-based. The settings on record: Severe acute respiratory syndrome coronavirus 2; MA10; Pneumocyte; dose 30.0 mg/kg, route po, time 2-5 day.
Assay [20] deals with SARS-CoV-2. The assay is classed as functional, organism-based. Particulars: Severe acute respiratory syndrome coronavirus 2; MA10; dose 60.0 mg/kg, route po, time 2-5 day. The source holds these as a separate data set.
Assay [21] concerns SARS-CoV-2. The assay is classed as functional, organism-based. Particulars: Severe acute respiratory syndrome coronavirus 2; MA10; dose 30.0 mg/kg, route po, time 5.0 day.
For assay [22], the system named is SARS-CoV-2. The assay is classed as functional, organism-based. Particulars: Severe acute respiratory syndrome coronavirus 2; MA10; Pneumocyte; dose 30.0 mg/kg, route po, time 2-5 day. This is another data set of the same source.
For assay [23], the system named is SARS-CoV-2. The assay is classed as functional, organism-based. The settings on record: Severe acute respiratory syndrome coronavirus 2; MA10; dose 30.0 mg/kg, route po, time 2.0 day.
The test system of assay [24] is SARS-CoV-2. The assay is classed as functional, organism-based. The settings on record: Severe acute respiratory syndrome coronavirus 2; MA10; dose 30.0 mg/kg, route po, time 2-5 day. The source holds these as a separate data set.
In assay [25] the test system is SARS-CoV-2. The assay is classed as functional, organism-based. The settings on record: Severe acute respiratory syndrome coronavirus 2; MA10; dose 30.0 mg/kg, route po, time 2-5 day. This is another data set of the same source.
Assay [26] relates to SARS-CoV-2. The assay is classed as functional, organism-based. Particulars: Severe acute respiratory syndrome coronavirus 2; MA10; dose 30.0 mg/kg, route po, time 2-5 day. This is another data set of the same source.
Assay [27] deals with SARS-CoV-2. Particulars: dose 60 mg/kg; route po; time 2 day.
Assay [28] has as its system SARS-CoV-2. The assay is classed as functional, organism-based. Particulars: Severe acute respiratory syndrome coronavirus 2; MA10; dose 30.0 mg/kg, route po, time 2-5 day. This is another data set of the same source.
Assay [29] deals with SARS-CoV-2. The assay is classed as functional, organism-based. The settings on record: Severe acute respiratory syndrome coronavirus 2; MA10; dose 30.0 mg/kg, route po, time 2-5 day. The source holds these as a separate data set.
Assay [30] deals with SARS-CoV-2. The assay is classed as functional, organism-based. The settings on record: Severe acute respiratory syndrome coronavirus 2; MA10; dose 60.0 mg/kg, route po, time 2-5 day. The source holds these as a separate data set.
The subject of assay [31] is SARS-CoV-2. The assay is classed as functional, organism-based. The settings on record: Severe acute respiratory syndrome coronavirus 2; MA10; dose 60.0 mg/kg, route po, time 2-5 day. This is another data set of the same source.
The test system of assay [32] is SARS-CoV-2. Particulars: dose 30 mg/kg; route po; time 5 day. This is another data set of the same source.
Assay [33] concerns SARS-CoV-2. The assay is classed as functional, organism-based. The settings on record: Severe acute respiratory syndrome coronavirus 2; MA10; dose 30.0 mg/kg, route po, time 2-5 day. This is another data set of the same source.
In assay [34] the test system is SARS-CoV-2. The assay is classed as functional, organism-based. The settings on record: Severe acute respiratory syndrome coronavirus 2; MA10; Pneumocyte; dose 60.0 mg/kg, route po, time 2-5 day. The source holds these as a separate data set.
The subject of assay [35] is SARS-CoV-2. The settings on record: dose 60 mg/kg; route po; time 5 day.

Consider `CC(C)C(=O)OC[C@H]1O[C@@](C#N)(c2ccc3c(N)ncnn23)[C@H](OC(=O)C(C)C)[C@@H]1OC(=O)C(C)C`, for which the “log(activity)” value in the assay with SARS-CoV-2 [1] and in the assay on SARS-CoV-2 [2] was greater than 2.9 throughout.
Regarding `CC(C)C(=O)OC[C@H]1O[C@@H](n2cc/c(=N\O)[nH]c2=O)[C@H](O)[C@@H]1O` [MOLNUPIRAVIR], the results for the “log(activity)” value in the assay on SARS-CoV-2 [3], in the assay on SARS-CoV-2 [2] and with SARS-CoV-2 [4] were 2.9, 2.6 and 2.1, respectively.
In the case of `CCCCCCCCCCCCCCCCCCOC[C@H](COP(=O)(O)OC[C@H]1O[C@@](C#N)(c2ccc3c(N)ncnn23)[C@H](O)[C@@H]1O)OCc1ccccc1`, the result in the assay with SARS-CoV-2 [5], with SARS-CoV-2 [6], in the assay on SARS-CoV-2 [7], in the assay with SARS-CoV-2 [8], in the assay on SARS-CoV-2 [9] and in the assay on SARS-CoV-2 [10] was inactive. Also, the result in the assay with SARS-CoV-2 [11], with SARS-CoV-2 [14], in the assay with SARS-CoV-2 [15], with SARS-CoV-2 [17], in the assay on SARS-CoV-2 [18] and in the assay with SARS-CoV-2 [19] was inactive. The outcome in the assay on SARS-CoV-2 [20], with SARS-CoV-2 [21], in the assay on SARS-CoV-2 [22], in the assay on SARS-CoV-2 [24], with SARS-CoV-2 [25] and with SARS-CoV-2 [26] was inactive. The result with SARS-CoV-2 [28], in the assay on SARS-CoV-2 [29], with SARS-CoV-2 [30], with SARS-CoV-2 [31], in the assay on SARS-CoV-2 [33] and in the assay with SARS-CoV-2 [34] was inactive. Moreover, the outcome in the assay on SARS-CoV-2 [12], in the assay with SARS-CoV-2 [13] and in the assay on SARS-CoV-2 [23] was Active. For the same compound, the “log(activity)” value in the assay on SARS-CoV-2 [16] was greater than 2.14; in the assay with SARS-CoV-2 [27], 1.52; in the assay on SARS-CoV-2 [32], greater than 2.14; with SARS-CoV-2 [35], greater than 2.14.
